# In US7491819B1 (priority 2004, dated 2009):
# Molecular target: T1, HIV-integrase (Human immunodeficiency virus type 1 group M subtype B, UniProt P12497)
# T1 construct: Recombinant integrase (0.26 ng) was incubated with the beads
# Test: HIV-Integrase Inhibition Activity (SPA bead strand-transfer assay)
# Format: biochemical
# Details: Table 1; read-out: Activity (HIV-integrase inhibition, IC50 class)
# Method: HIV-Integrase Inhibition Activity. To evaluate in-vitro activity against HIV-integrase, 5 pmole of biotin labeled substrate DNA was bound to 100 μg of Streptavidin coated PVT SPA beads (Amersham Pharmacia Biotech). Recombinant integrase (0.26 ng) was incubated with the beads for 90 min at 37° C. Unbound enzyme was removed by washing the complex followed by addition of inhibitors and 0.1 fmol of P33 labeled target DNA. The reaction was stopped by adding EDTA to a final concentration of 10 mM. Samples were counted in TopCountNXT (Packard) and the CPM was used as a measure of integration. The reaction condition was as described in A. Engelman and R. Craigie, J. Virol 69, 5908-5911 (1995). The sequences of substrate and target DNA were described in Nucleic Acid Research 22, 1121-1122 (1994).
row,SMILES,IC50
1,"CN1CCN(c2cc(-c3ccccc3CNC(=O)c3nc4n(c(=O)c3O)CCOC4(C)C)ccn2)CC1 [Example 159, Pyrimido[2,1-c][1,4]oxazine-2-carboxamide, 4,6,7,9-tetrahydro-3-hydroxy-9,9-dimethyl-N-[[2-[2-(4-methyl-1-piperazinyl)-4-pyridinyl]phenyl]methyl]-4-oxo-]",100 to 1000 nM
2,"Cc1cnc(CNC(=O)c2nc3n(c(=O)c2O)CCOC3(C)C)cn1 [Example 142, Pyrimido[2,1-c][1,4]oxazine-2-carboxamide, 4,6,7,9-tetrahydro-3-hydroxy-9,9-dimethyl-N-[(5-methylpyrazinyl)methyl]-4-oxo-]",2 to 100 nM
3,"CC1(C)OCCn2c1nc(C(=O)NCc1cccc3c1OCCO3)c(O)c2=O [Example 267, Pyrimido[2,1-c][1,4]oxazine-2-carboxamide, N-[(2,3-dihydro-1,4-benzodioxin-5-yl)methyl]-4,6,7,9-tetrahydro-3-hydroxy-9,9-dimethyl-4-oxo-]",2 to 100 nM
4,"Cc1ncnn1-c1cc(F)ccc1CNC(=O)c1nc2n(c(=O)c1O)CCOC2(C)C [Example 82, Pyrimido[2,1-c][1,4]oxazine-2-carboxamide, N-[[4-fluoro-2-(5-methyl-1H-1,2,4-triazol-1-yl)phenyl]methyl]-4,6,7,9-tetrahydro-3-hydroxy-9,9-dimethyl-4-oxo-]",2 to 100 nM
5,CCC1(CC)OCCn2c1nc(C(=O)NCc1ccc(F)c(C)c1)c(O)c2=O [Example 43],2 to 100 nM
6,"Cc1noc(C)c1-c1ccccc1CNC(=O)c1nc2n(c(=O)c1O)CCOC2(C)C [Example 180, Pyrimido[2,1-c][1,4]oxazine-2-carboxamide, N-[[2-(3,5-dimethyl-4-isoxazolyl)phenyl]methyl]-4,6,7,9-tetrahydro-3-hydroxy-9,9-dimethyl-4-oxo-]",2 to 100 nM
7,"CN(C)C[C@H]1CCC(=O)N1c1cc(F)ccc1CNC(=O)c1nc2n(c(=O)c1O)CCOC2(C)C [Example 131, (R)—N-(2-(2-((Dimethylamino)methyl)-5-oxopyrrolidin-1-yl)-4-fluorobenzyl)-3-hydroxy-9,9-dimethyl-4-oxo-4,6,7,9-tetrahydropyrimido[2,1-c][1,4]oxazine-2-carboxamide]",100 to 1000 nM
8,"Cc1ccc(Cl)c(CNC(=O)c2nc3n(c(=O)c2O)CCOC3(C)C)c1F [Example 274, Pyrimido[2,1-c][1,4]oxazine-2-carboxamide, N-[(6-chloro-2-fluoro-3-methylphenyl)methyl]-4,6,7,9-tetrahydro-3-hydroxy-9,9-dimethyl-4-oxo-]",2 to 100 nM
9,"CN(C)S(=O)(=O)c1cc(F)ccc1CNC(=O)c1nc2n(c(=O)c1O)CCOC2(C)C [Example 108, Pyrimido[2,1-c][1,4]oxazine-2-carboxamide, N-[[2-[(dimethylamino)sulfonyl]-4-fluorophenyl]methyl]-4,6,7,9-tetrahydro-3-hydroxy-9,9-dimethyl-4-oxo-]",2 to 100 nM
10,"CC1(C)OCCn2c1nc(C(=O)NCc1ccccc1N)c(O)c2=O [Example 255, Pyrimido[2,1-c][1,4]oxazine-2-carboxamide, N-[(2-aminophenyl)methyl]-4,6,7,9-tetrahydro-3-hydroxy-9,9-dimethyl-4-oxo-]",2 to 100 nM
11,"CC1(C)OCCn2c1nc(C(=O)NCc1ccc(Cl)cc1Cl)c(O)c2=O [Example 271, Pyrimido[2,1-c][1,4]oxazine-2-carboxamide, N-[(2,4-dichlorophenyl)methyl]-4,6,7,9-tetrahydro-3-hydroxy-9,9-dimethyl-4-oxo-]",2 to 100 nM
12,"CC1(C)OCCn2c1nc(C(=O)NCc1ccccc1-c1cccc(O)c1)c(O)c2=O [Example 165, Pyrimido[2,1-c][1,4]oxazine-2-carboxamide, 4,6,7,9-tetrahydro-3-hydroxy-N-[(3′-hydroxy[1,1′-biphenyl]-2-yl)methyl]-9,9-dimethyl-4-oxo-]",2 to 100 nM
13,"CSc1ccccc1CNC(=O)c1nc2n(c(=O)c1O)CCOC2(C)C [Example 112, Pyrimido[2,1-c][1,4]oxazine-2-carboxamide, 4,6,7,9-tetrahydro-3-hydroxy-9,9-dimethyl-N-[[2-(methylthio)phenyl]methyl]-4-oxo-]",2 to 100 nM
14,"CC1(C)OCCn2c1nc(C(=O)NCc1ccc(F)c3ccccc13)c(O)c2=O [Example 40, Pyrimido[2,1-c][1,4]oxazine-2-carboxamide, N-[(4-fluoro-1-naphthalenyl)methyl]-4,6,7,9-tetrahydro-3-hydroxy-9,9-dimethyl-4-oxo-]",2 to 100 nM
15,"Cc1cccc(CNC(=O)c2nc3n(c(=O)c2O)CCOC3(C)C)c1 [Example 223, Pyrimido[2,1-c][1,4]oxazine-2-carboxamide, 4,6,7,9-tetrahydro-3-hydroxy-9,9-dimethyl-N-[(3-methylphenyl)methyl]-4-oxo-]",2 to 100 nM
16,"CC1(C)OCCn2c1nc(C(=O)NCc1ccc(F)cc1-n1cnc(C(=O)NS(C)(=O)=O)n1)c(O)c2=O [Example 64, Pyrimido[2,1-c][1,4]oxazine-2-carboxamide, N-[[4-fluoro-2-[3-[[(methylsulfonyl)amino]carbonyl]-1H-1,2,4-triazol-1-yl]phenyl]methyl]-4,6,7,9-tetrahydro-3-hydroxy-9,9-dimethyl-4-oxo-]",2 to 100 nM
17,"COc1ccc(-c2ccccc2CNC(=O)c2nc3n(c(=O)c2O)CCOC3(C)C)c(OC)n1 [Example 154, Pyrimido[2,1-c][1,4]oxazine-2-carboxamide, N-[[2-(2,6-dimethoxy-3-pyridinyl)phenyl]methyl]-4,6,7,9-tetrahydro-3-hydroxy-9,9-dimethyl-4-oxo-]",2 to 100 nM
18,"CC1(C)OCCn2c1nc(C(=O)NCc1ccc(N)cc1)c(O)c2=O [Example 256, Pyrimido[2,1-c][1,4]oxazine-2-carboxamide, N-[(4-aminophenyl)methyl]-4,6,7,9-tetrahydro-3-hydroxy-9,9-dimethyl-4-oxo-]",100 to 1000 nM
19,"COc1ccc(CNC(=O)c2nc3n(c(=O)c2O)CCOC3(C)C)cc1Cl [Example 239, Pyrimido[2,1-c][1,4]oxazine-2-carboxamide, N-[(3-chloro-4-methoxyphenyl)methyl]-4,6,7,9-tetrahydro-3-hydroxy-9,9-dimethyl-4-oxo-]",2 to 100 nM
20,"CC1(C)OCCn2c1nc(C(=O)NCc1ccc(F)cc1C#CCOS(C)(=O)=O)c(O)c2=O [Example 90, Pyrimido[2,1-c][1,4]oxazine-2-carboxamide, N-[[4-fluoro-2-[3-[(methylsulfonyl)oxy]-1-propynyl]phenyl]methyl]-4,6,7,9-tetrahydro-3-hydroxy-9,9-dimethyl-4-oxo-]",2 to 100 nM
21,"CC1(C)OCCn2c1nc(C(=O)NCc1ccccc1-c1cnc3ccccc3c1)c(O)c2=O [Example 194, Pyrimido[2,1-c][1,4]oxazine-2-carboxamide, 4,6,7,9-tetrahydro-3-hydroxy-9,9-dimethyl-4-oxo-N-[[2-(3-quinolinyl)phenyl]methyl]-]",2 to 100 nM
22,"CC1(C)OCCn2c1nc(C(=O)NCc1ccccc1Br)c(O)c2=O [Example 147, Pyrimido[2,1-c][1,4]oxazine-2-carboxamide, N-[(2-bromophenyl)methyl]-4,6,7,9-tetrahydro-3-hydroxy-9,9-dimethyl-4-oxo-]",2 to 100 nM
23,"CNC(=O)COc1cc(F)ccc1CNC(=O)c1nc2n(c(=O)c1O)CCOC2(C)C [Example 97, Pyrimido[2,1-c][1,4]oxazine-2-carboxamide, N-[[4-fluoro-2-[2-(methylamino)-2-oxoethoxy]phenyl]methyl]-4,6,7,9-tetrahydro-3-hydroxy-9,9-dimethyl-4-oxo-]",2 to 100 nM
24,"CC1(C)OCCn2c1nc(C(=O)NCc1ccc(-n3cncn3)cc1F)c(O)c2=O [Example 22, Pyrimido[2,1-c][1,4]oxazine-2-carboxamide, N-[[2-fluoro-4-(1H-1,2,4-triazol-1-yl)phenyl]methyl]-4,6,7,9-tetrahydro-3-hydroxy-9,9-dimethyl-4-oxo-]",100 to 1000 nM
25,"CNC(=O)c1cc(F)ccc1CNC(=O)c1nc2n(c(=O)c1O)CCOC2 [Example 3, Pyrimido[2,1-c][1,4]oxazine-2-carboxamide, N-[[4-fluoro-2-[(methylamino)carbonyl]phenyl]methyl]-4,6,7,9-tetrahydro-3-hydroxy-4-oxo-]",2 to 100 nM
26,"CN1CCN(C(=O)c2ccc(-c3ccccc3CNC(=O)c3nc4n(c(=O)c3O)CCOC4(C)C)cc2)CC1 [Example 196, Pyrimido[2,1-c][1,4]oxazine-2-carboxamide, 4,6,7,9-tetrahydro-3-hydroxy-9,9-dimethyl-N-[[4′-[(4-methyl-1-piperazinyl)carbonyl][1,1′-biphenyl]-2-yl]methyl]-4-oxo-]",2 to 100 nM
27,"CC1(C)OCCn2c1nc(C(=O)NCc1ccc(F)cc1N1C(=O)CC[C@H]1CO)c(O)c2=O [Example 130, Pyrimido[2,1-c][1,4]oxazine-2-carboxamide, N-[[4-fluoro-2-[(2S)-2-(hydroxymethyl)-5-oxo-1-pyrrolidinyl]phenyl]methyl]-4,6,7,9-tetrahydro-3-hydroxy-9,9-dimethyl-4-oxo-]",2 to 100 nM
28,"CC1(C)OCCn2c1nc(C(=O)NCc1ccc(F)cc1C(=O)O)c(O)c2=O [Example 48, Benzoic acid, 5-fluoro-2-[[[(4,6,7,9-tetrahydro-3-hydroxy-9,9-dimethyl-4-oxopyrimido[2,1-c][1,4]oxazin-2-yl)carbonyl]amino]methyl]-]",2 to 100 nM
29,"CCOc1ccccc1CNC(=O)c1nc2n(c(=O)c1O)CCOC2(C)C [Example 243, Pyrimido[2,1-c][1,4]oxazine-2-carboxamide, N-[(2-ethoxyphenyl)methyl]-4,6,7,9-tetrahydro-3-hydroxy-9,9-dimethyl-4-oxo-]",2 to 100 nM
